In ChEMBL document CHEMBL1152992, “RmtC 16S rRNA methyltransferase in Australia” (2008) one finds MIC data, which are given here for 13 compounds.

Converted amounts (≈) assume the structure as drawn.

The assay has as its system Proteus mirabilis. The experiment in a line: Antimicrobial activity against Proteus mirabilis JIE273 expressing 16S rRNA methyltransferase RmtC. Format: functional.
Broadly, the MIC is the smallest concentration in the dilution series that meets the test's criterion for growth inhibition. As to `CC1(C)S[C@@H]2[C@H](NC(=O)[C@H](C(=O)O)c3ccsc3)C(=O)N2[C@H]1C(=O)O` [TICARCILLIN], the minimal inhibitory concentration (MIC) stood at 32 µg/mL (≈ 83.2 µM).

`CO/N=C(\C(=O)N[C@@H]1C(=O)N2C(C(=O)O)=C(COC(C)=O)CS[C@H]12)c1csc(N)n1` [CEFOTAXIME]: the minimum inhibitory concentration (MIC) was > 32 µg/mL.

For `CCn1cc(C(=O)O)c(=O)c2ccc(C)nc21` [NALIDIXIC ACID], the MIC was > 32 µg/mL.

In the case of `C[C@H]1[C@H](NC(=O)/C(=N\OC(C)(C)C(=O)O)c2csc(N)n2)C(=O)N1S(=O)(=O)O` [AZTREONAM], the minimum inhibitory concentration (MIC) was > 16 µg/mL.

Turning to `CO/N=C(\C(=O)N[C@@H]1C(=O)N2C(C(=O)O)=C(CSc3nc(=O)c(O)nn3C)CS[C@H]12)c1csc(N)n1` [CEFTRIAXONE], the minimum inhibitory concentration (MIC) was > 32 µg/mL.

As for `CC(=O)OCC1=C(C(=O)O)N2C(=O)[C@@H](NC(=O)Cc3cccs3)[C@H]2SC1` [CEPHALOTHIN], the MIC was > 16 µg/mL.

For the compound `CC1(C)S[C@@H]2[C@H](NC(=O)[C@H](N)c3ccccc3)C(=O)N2[C@H]1C(=O)O` [AMPICILLIN], the minimum inhibitory concentration (MIC) was > 16 µg/mL.

As for `C[C@@H](O)[C@H]1C(=O)N2C(C(=O)O)=C(SCCNC=N)C[C@H]12` [IMIPENEM ANHYDROUS], the minimum inhibitory concentration (MIC) was ≤ 2 µg/mL.

`C[C@H]1COc2c(N3CCN(C)CC3)c(F)cc3c(=O)c(C(=O)O)cn1c23.C[C@H]1COc2c(N3CCN(C)CC3)c(F)cc3c(=O)c(C(=O)O)cn1c23.O` [LEVOFLOXACIN]: the minimal inhibitory concentration (MIC) was > 4 µg/mL.

Consider `CO/N=C(\C(=O)N[C@@H]1C(=O)N2C(C(=O)O)=C(COC(N)=O)CS[C@H]12)c1ccco1` [CEFUROXIME], for which the MIC is > 16 µg/mL.

Consider `CC(C)(O/N=C(\C(=O)N[C@@H]1C(=O)N2C(C(=O)[O-])=C(C[n+]3ccccc3)CS[C@H]12)c1csc(N)n1)C(=O)O` [CEFTAZIDIME], for which the MIC was > 16 µg/mL.

Regarding `O=C(O)c1cn(C2CC2)c2cc(N3CCNCC3)c(F)cc2c1=O` [CIPROFLOXACIN], the MIC is > 2 µg/mL.

Regarding `CO[C@@]1(NC(=O)Cc2cccs2)C(=O)N2C(C(=O)O)=C(COC(N)=O)CS[C@@H]21` [CEFOXITIN], the MIC was ≤ 4 µg/mL.
